Patent US20100009017A1, “Anticancer Methods Using Extracts of Anemarrhena asphodeloides Bunge” (BIONOVO, INC., priority 2008, published 2010)

Tests used:
Type in all cases: cell-based
REDD1 = REDD1 induction in Du145 cells (FIG. 6); conditions: Du145 prostate cancer cells; BN108 0.5 mg/mL, Timosaponin A3 7.5 μM
Description: FIG. 6. Pro-apoptotic gene REDD1 is induced in prostate cancer cell line Du145 by treatment with BN108 (0.5 mg/ml) and Timosaponin A3 (7.5 μM). Both BN108 and Timosaponin A3 induce the pro-apoptotic gene REDD1 in prostate cancer cells.

IDI1 = experiment: Expression of SREBP2 target gene IDI1 in BT474 cells (FIG. 7); conditions: Timosaponin A3 5 μM, BN108 0.5 mg/mL
Description: (§1) FIG. 7. Purified Timosaponin A3 and BN108 extract have similar effects on phosphorylation of eIF2a and on activation of SREBP2 as well as expression on SREBP2 target gene IDI1. BT474 cells were treated with TspA3 (5 μM) or BN108 (0.5 mg/ml). Both BN108 and Timosaponin A3 induce the pro-apoptotic gene REDD1 in prostate cancer cells.

BT474 cells [1] = experiment: FACScan propidium iodide / Annexin V viability and apoptosis (FIG. 9, table); conditions: for cells surviving: BT474, 24 hours; for % Difference from control: control = DMSO
Description: FIG. 9. […] BT474 cells were treated for 24 hours, and percent of live cells was analyzed on FACScan based on permeability of dead cells for propidium iodide and binding of Annexin V.
The cytotoxic effects of BN108 and Timosaponin A3 are attenuated by cholesterol (CHL) and the caspase 4 inhibitor LEVD. […] Treatment of BT474 cells with […] cholesterol protected the cells from the effects of Timosaponin A3 and BN108, with about 80% of the cells surviving 24 hours in the presence of cholesterol (CHL).

SREBP2 = SREBP2 activation in BT474 cells (FIG. 4B, FIG. 7); conditions: Timosaponin A3 5 μM, BN108 0.5 mg/mL
Description: FIG. 4. […] B. SREBP2 is activated by BN108 in both cell lines. Activated AKT was detected using antibody to phosphoserine 473 (Phospho-AKT) that is phosphorylated only in active kinase.
FIG. 7. Purified Timosaponin A3 and BN108 extract have similar effects on phosphorylation of eIF2a and on activation of SREBP2 as well as expression on SREBP2 target gene IDI1. BT474 cells were treated with TspA3 (5 μM) or BN108 (0.5 mg/ml).
In FIG. 4B, it can be seen that SREBP2 is activeated by BN108 in both the cancer cells (BT474) and the non-cancerous cells (MCF10A).
Both BN108 and Timosaponin A3 induce the pro-apoptotic gene REDD1 in prostate cancer cells.

BT474 cells [2] = experiment: Cell death in BT474 cells (FIG. 5, FIG. 15); conditions: for induction of cell death: BT474, 24 hr, BN108 0.5 mg/mL, Timosaponin A3 4 μg/mL, Timosaponin B2 50 μg/mL, lamarinase-treated Timosaponin B2 4 μg/mL
Description: FIG. 5. Effect of Timosaponins A3 and B2 on viability of breast cancer (BT474) and normal epithelial cells (MCF10A). Cells were treated with BN108 at 0.5 mg/ml, Timosaponin A3 at 4 μg/ml, or Timosaponin B2 at 50 μg/ml, inactivated lamarinase alone or lamarinase-treated B2 at 4 μg/ml for 24 hours.
FIG. 15. Conversion of Timosaponin B2 to Timosaponin A3 by lamarinase was confirmed by time of flight mass spectrometry (TOF MS). Disappearance of Timosaponin B2 and appearance of Timosaponin A3 results in an increase in cell death from 16% in the presence of inactivated lamarinase and Timosaponin B2 to 53% in the presence of activated lamarinase and Timosaponin B2.
The effect of Timosaponins A3 and B2 on the viability of breast cancer cells and normal epithelial cells was tested by treating cells with either 0.5 mg/mL BN108, 4 μg/mL Timosaponin A3, 50 μg/mL Timosaponin B2, inactivated lamarinase alone or lamarinase-treated Timosaponin B2 (4 μg/mL) for 24 hr. […] The difference in activity between Timosaponin A3 and lamarinase treated Timosaponin B2 is, on a molar basis, probably negligible, given that the quotient of the molecular weights of Timosaponin B2 (920 Da) and Timosaponin A3 (740 Da) is roughly equivalent to the ratio of the % dead cells in the Timosaponin A3 and the lamarinase-treated Timosaponin B2. Thus, it can be inferred that nearly all the Timosaponin B2 is converted into Timosaponin A3, and is active to induced apoptosis, in the presence of lamarinase.

cancer cells = experiment: Induction of apoptosis in vitro
MCF10A cells = experiment: Cholesterol content of cell extracts (FIG. 8); conditions: normal (MCF10A) breast cells, through the first 8 hours after treatment
Description: (§2) FIG. 8. Purified Timosaponin A3 and BN108 extract have similar effects on cholesterol synthesis on breast cancer cells MM23 and normal MCF10A cells. Cells were treated with either BN108 or TspA3 for indicated times, and cell extracts were analyzed for cholesterol content, which was normalized to the protein content.
(§3) BN108 and Timosaponin A3 had similar effects on cholesterol (CHL) synthesis in cancerous and normal cells.

MM23 breast cancer cells = experiment: Cholesterol content of cell extracts (FIG. 8); conditions: cancerous (MM23) breast cells
Description: as §2, §3

eIF2a = experiment: Phosphorylation of eIF2a in BT474 cells (FIG. 7); conditions: Timosaponin A3 5 μM, BN108 0.5 mg/mL
Description: as §1

non-cancerous cells = experiment: Induction of apoptosis in vitro

Structure (SMILES) | REDD1 gene induction (REDD1) | expression of IDI1 (IDI1) | % Total apoptotic (BT474 cells [1]) [%] | % early apoptotic (BT474 cells [1]) [%] | % late apoptotic (BT474 cells [1]) [%] | cells surviving (BT474 cells [1]) [%] | cells surviving (BT474 cells [1]; with 250 mM cholesterol (CHL)) | % Difference from control (BT474 cells [1]) [%] | expression of SREBP2 (SREBP2) | induction of cell death (BT474 cells [2]) | induction of apoptosis (cancer cells) | cholesterol synthesis (MCF10A cells) | cholesterol synthesis (MM23 breast cancer cells) | phosphorylation of eIF2a (eIF2a) | induction of apoptosis (non-cancerous cells) | cell death (BT474 cells [2]; in the presence of inactivated lamarinase (FIG. 15)) [%]
CC1CCC2(OC1)OC1CC3C4CCC5CC(OC6OC(CO)C(O)C(O)C6OC6OC(CO)C(O)C(O)C6O)CC[C@]5(C)C4CC[C@]3(C)[C@H]1[C@@H]2C (stereo partly shown) [Timosaponin A3] | induced | increase expression of IDI1 | 68 | 35 | 33 | 40 | about 80% | 57 | increase expression of SREBP2 | induced cell death | induces of apoptosis | reduce cholesterol synthesis | increase cholesterol synthesis slightly | increase phosphorylation of elF2a | does not induce apoptosis | –
C[C@@H](CCC1(O)O[C@H]2C[C@H]3[C@@H]4CC[C@@H]5C[C@@H](O[C@@H]6O[C@H](CO)[C@H](O)[C@H](O)[C@H]6O[C@@H]6O[C@H](CO)[C@@H](O)[C@H](O)[C@H]6O)CC[C@]5(C)[C@H]4CC[C@]3(C)[C@H]2[C@@H]1C)CO[C@@H]1O[C@H](CO)[C@@H](O)[C@H](O)[C@H]1O (stereo partly shown) [Timosaponin B2] | – | – | 12 | 7 | 5 | – | – | 1 | – | did not induce cell death | does not induce apoptosis | – | – | – | – | 16
